Measured values from patent US4617189A, “Use of selenium-containing compounds for negating the toxic effects of platinum compounds used in chemotherapy, and a novel selenium-containing platinum compound and use thereof as an anti-cancer medicine” (priority 1985, dated 1986).

Experiments:
[1] = tested on: Cisplatin induced nephrotoxicity; test: Platinum toxicity negating effect: blood urea nitrogen (BUN) determination in BDF1 mice given Cisplatin; format: in vivo, mouse (male BDF1); conditions: for BUN (≥30) on the fourth day / BUN (≥30) on the eleventh day: mice with BUN ≥30 / mice
Experimental: BUN of the mice which have been administered a platinum complex increases due to the platinum poisoning in the kidney. […] The method of negating platinum toxicity of the present invention will be illustrated in more detail by way of Examples later.
Sodium selenite was administered to the peritoneal cavities of the mice at a dosage of 6.3 mg/kg. […] BUN of the mice was determined on the fourth day from the date of the administration. […] BUN of these control groups was also determined.
BUN of the mice was dertermined on the fourth day from the date of administration and on the eleventh day from the date of the administration. […] BUN of these control groups was also determined.
Our studies were carried out in BDF1 male mice weighing approximately 25 grams. All solutions were freshly were daily and given by the intraperitoneal route.
The BUN values were determined on the fourth day after the administration of cisplatinol.

[2] = tested on: cadmium induced testicular damage; conditions: Kar and co-workers, 1969; cited from earlier work
[3] = tested on: nephrotoxic effects of Cisplatin; conditions: 750 mg/kg intraperitoneally or 100 mg/kg intravenously; cited from earlier work
[4] = Table 3, sodium selenite 1 mg/kg 2 hours before Cisplatin 14 mg/kg
[5] = Table 3, sodium selenite 2 mg/kg 2 hours before Cisplatin 14 mg/kg
[6] = Table 3, sodium selenite 4 mg/kg 2 hours before Cisplatin 14 mg/kg
[7] = Table 3, sodium selenite 6 mg/kg 2 hours before Cisplatin 14 mg/kg
[8] = Table 3, sodium selenite 8 mg/kg 2 hours before Cisplatin 14 mg/kg

Compound: O=[Se](O)O [Sodium selenite]
- number of dead mice ([1]; Table 1, fourth day, sodium selenite 6.3 mg/kg 2 hours before Cisplatin 14 mg/kg): 2
- BUN (≥30) on the fourth day ([1]; Table 1, sodium selenite 6.3 mg/kg 1 hour after Cisplatin 14 mg/kg): 5/5
- BUN (≥30) on the fourth day ([1]; Table 1, sodium selenite 6.3 mg/kg 2 hours before Cisplatin 14 mg/kg): 1/3
- BUN (≥30) on the fourth day ([1]; Table 1, sodium selenite 6.3 mg/kg 4 hours before Cisplatin 14 mg/kg): 4/5
- BUN (≥30) on the fourth day ([1]; Table 1, sodium selenite 6.3 mg/kg i.p. alone, no Cisplatin): 0/5
- BUN (≥30) on the fourth day ([1]; Table 1, sodium selenite 6.3 mg/kg simultaneously with Cisplatin 14 mg/kg): 2/5
- number of dead mice ([1]; Table 2, fourth day, sodium selenite 6.3 mg/kg 3 hours before Cisplatin 14 mg/kg): 1
- number of dead mice ([1]; Table 2, fourth day, sodium selenite 6.3 mg/kg 4 hours before Cisplatin 14 mg/kg): 1
- number of dead mice ([1]; Table 2, fourth day, sodium selenite 6.3 mg/kg 6 hours before Cisplatin 14 mg/kg): 1
- number of dead mice ([1]; Table 2, fourth day, sodium selenite 6.3 mg/kg simultaneously with Cisplatin 14 mg/kg): 1
- BUN (≥30) on the fourth day ([1]; Table 2, sodium selenite 6.3 mg/kg 1 hour before Cisplatin 14 mg/kg): 3/5
- BUN (≥30) on the fourth day ([1]; Table 2, sodium selenite 6.3 mg/kg 2 hours before Cisplatin 14 mg/kg): 1/5
- BUN (≥30) on the fourth day ([1]; Table 2, sodium selenite 6.3 mg/kg 3 hours before Cisplatin 14 mg/kg): 1/4
- BUN (≥30) on the fourth day ([1]; Table 2, sodium selenite 6.3 mg/kg 4 hours before Cisplatin 14 mg/kg): 2/4
- BUN (≥30) on the fourth day ([1]; Table 2, sodium selenite 6.3 mg/kg 6 hours before Cisplatin 14 mg/kg): 2/4
- BUN (≥30) on the fourth day ([1]; Table 2, sodium selenite 6.3 mg/kg simultaneously with Cisplatin 14 mg/kg): 2/4
- number of dead mice ([1]; Table 3, eleventh day, sodium selenite 2 mg/kg 2 hours before Cisplatin 14 mg/kg): 1
- number of dead mice ([1]; Table 3, eleventh day, sodium selenite 4 mg/kg 2 hours before Cisplatin 14 mg/kg): 2
- number of dead mice ([1]; Table 3, eleventh day, sodium selenite 6 mg/kg 2 hours before Cisplatin 14 mg/kg): 1
- number of dead mice ([1]; Table 3, eleventh day, sodium selenite 8 mg/kg 2 hours before Cisplatin 14 mg/kg): 1
- number of dead mice ([1]; Table 3, fourth day, sodium selenite 4 mg/kg 2 hours before Cisplatin 14 mg/kg): 1
- number of dead mice ([1]; Table 3, fourth day, sodium selenite 8 mg/kg 2 hours before Cisplatin 14 mg/kg): 1
- BUN (≥30) on the eleventh day [1, 4]: 1/5
- BUN (≥30) on the fourth day [1, 4]: 3/5
- BUN (≥30) on the eleventh day [1, 5]: 0/4
- BUN (≥30) on the fourth day [1, 5]: 1/5
- BUN (≥30) on the eleventh day [1, 6]: 0/3
- BUN (≥30) on the fourth day [1, 6]: 1/4
- BUN (≥30) on the eleventh day [1, 7]: 0/4
- BUN (≥30) on the fourth day [1, 7]: 1/5
- BUN (≥30) on the eleventh day [1, 8]: 0/4
- BUN (≥30) on the fourth day [1, 8]: 1/4

Compound: [Se] [selenium]
- cadmium induced testicular damage [2]: prevents

Compound: CCN(CC)C(=S)[S-].[Na+] [sodium diethyldithiocarbamate]
- nephrotoxic effects of Cisplatin in female rats [3]: effectively inhibited
